The values that follow come from patent US20240376097A1, “BCL-2 Inhibitor” (BeiGene Ltd., priority 2020, published 2024).

The assay concerns BCL-2 G101V knock-in cell line H96 (derive from RS4;11). The assay is described as follows: Bcl 2-G101V Knock-In RS4;11 Cell Proliferation Assay. The format is cell-based. The conditions noted are these: Homo sapiens, RS4-11, 48 h, RS4;11 Bcl-2 G101V knock-in clone H96, 48 hrs, CellTiter-GLO, read-out: Cellular proliferation assay (IC50, nM) RS4. In a few lines:
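CellTiter-Glo luminescence after 48 h, 37 °C compound treatment (10 concentrations, maximum 1 μM or 10 μM) gave mean IC50 values. Cells were 50,000 per well of H96, a BCL2-G101V knock-in single clone derived from RS4;11 by Cas9 editing.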
(In ATP-based viability assays light output follows the ATP content of the culture.)
On to `CC(C)c1ccccc1C1CN(Cc2ccc(F)cc2)CCN1C1CC2(CCN(c3ccc(C(=O)NS(=O)(=O)c4ccc(NC[C@H]5CC[C@](C)(O)CC5)c([N+](=O)[O-])c4)c(Oc4cnc5[nH]ccc5c4)c3)CC2)C1` (stereo partly shown) [Example 28, 2-((1H-pyrrolo[2,3-b]pyridin-5-yl)oxy)-4-(2-(4-(4-fluorobenzyl)-2-(2-isopropylphenyl)piperazin-1-yl)-7-azaspiro[3.5]nonan-7-yl)-N-((4-((((1r,4r)-4-hydroxy-4-methylcyclohexyl)methyl)amino)-3-nitrophenyl)sulfonyl)benzamide], for which the IC50 stood at 2.69 nM.
The result for `CC(C)c1ccccc1C1CN(Cc2ccc(Cl)cc2)CCN1C1CC2(CCN(c3ccc(C(=O)NS(=O)(=O)c4ccc(NC[C@H]5CC[C@](C)(O)CC5)c([N+](=O)[O-])c4)c(Oc4cnc5[nH]ccc5c4)c3)CC2)C1` (stereo partly shown) [Example 29, 2-((1H-pyrrolo[2,3-b]pyridin-5-yl)oxy)-4-(2-(4-(4-chlorobenzyl)-2-(2-isopropylphenyl)piperazin-1-yl)-7-azaspiro[3.5]nonan-7-yl)-N-((4-((((1r,4r)-4-hydroxy-4-methylcyclohexyl)methyl)amino)-3-nitrophenyl)sulfonyl)benzamide] reads 2.95 nM; that for `CC(C)c1ccccc1C1CN(Cc2ccc(C(F)(F)F)cc2)CCN1C1CC2(CCN(c3ccc(C(=O)NS(=O)(=O)c4ccc(NC[C@H]5CC[C@](C)(O)CC5)c([N+](=O)[O-])c4)c(Oc4cnc5[nH]ccc5c4)c3)CC2)C1` (stereo partly shown) [Example 41, 2-((1H-pyrrolo[2,3-b]pyridin-5-yl)oxy)-N-((4-((((1r,4r)-4-hydroxy-4-methylcyclohexyl)methyl)amino)-3-nitrophenyl)sulfonyl)-4-(2-(2-(2-isopropylphenyl)-4-(4-(trifluoromethyl)benzyl)piperazin-1-yl)-7-azaspiro[3.5]nonan-7-yl) benzamide], 7.2 nM.
For the compound `CC(C)c1ccccc1C1CN(Cc2cccc(F)c2)CCN1C1CC2(CCN(c3ccc(C(=O)NS(=O)(=O)c4ccc(NC[C@H]5CC[C@](C)(O)CC5)c([N+](=O)[O-])c4)c(Oc4cnc5[nH]ccc5c4)c3)CC2)C1` (stereo partly shown) [Example 43, 2-((1H-pyrrolo[2,3-b]pyridin-5-yl)oxy)-4-(2-(4-(3-fluorobenzyl)-2-(2-isopropylphenyl)piperazin-1-yl)-7-azaspiro[3.5]nonan-7-yl)-N-((4-((((1r,4r)-4-hydroxy-4-methylcyclohexyl)methyl)amino)-3-nitrophenyl)sulfonyl)benzamide], the IC50 was determined as 3.27 nM.
With `CC(C)c1ccccc1C1CN(Cc2ccccc2F)CCN1C1CC2(CCN(c3ccc(C(=O)NS(=O)(=O)c4ccc(NC[C@H]5CC[C@](C)(O)CC5)c([N+](=O)[O-])c4)c(Oc4cnc5[nH]ccc5c4)c3)CC2)C1` (stereo partly shown) [Example 46, 2-((1H-pyrrolo[2,3-b]pyridin-5-yl)oxy)-4-(2-(4-(2-fluorobenzyl)-2-(2-isopropylphenyl)piperazin-1-yl)-7-azaspiro[3.5]nonan-7-yl)-N-((4-((((1r,4r)-4-hydroxy-4-methylcyclohexyl)methyl)amino)-3-nitrophenyl)sulfonyl)benzamide] the figure was 10.2 nM; with `COc1ccc(CN2CCN(C3CC4(CCN(c5ccc(C(=O)NS(=O)(=O)c6ccc(NC[C@H]7CC[C@](C)(O)CC7)c([N+](=O)[O-])c6)c(Oc6cnc7[nH]ccc7c6)c5)CC4)C3)C(c3ccccc3C(C)C)C2)c(OC)c1` (stereo partly shown) [Example 48], 1.9 nM; with `CC(C)c1ccccc1C1CN(Cc2cc(F)cc(F)c2)CCN1C1CC2(CCN(c3ccc(C(=O)NS(=O)(=O)c4ccc(NC[C@H]5CC[C@](C)(O)CC5)c([N+](=O)[O-])c4)c(Oc4cnc5[nH]ccc5c4)c3)CC2)C1` (stereo partly shown) [Example 51, 2-((1H-pyrrolo[2,3-b]pyridin-5-yl)oxy)-4-(2-(4-(3,5-difluorobenzyl)-2-(2-isopropylphenyl)piperazin-1-yl)-7-azaspiro[3.5]nonan-7-yl)-N-((4-((((1r,4r)-4-hydroxy-4-methylcyclohexyl)methyl)amino)-3-nitrophenyl)sulfonyl)benzamide], 4 nM.
With `CC(C)c1ccccc1C1CN(Cc2ccc(F)c(F)c2)CCN1C1CC2(CCN(c3ccc(C(=O)NS(=O)(=O)c4ccc(NC[C@H]5CC[C@](C)(O)CC5)c([N+](=O)[O-])c4)c(Oc4cnc5[nH]ccc5c4)c3)CC2)C1` (stereo partly shown) [Example 52, 2-((1H-pyrrolo[2,3-b]pyridin-5-yl)oxy)-4-(2-(4-(3,4-difluorobenzyl)-2-(2-isopropylphenyl)piperazin-1-yl)-7-azaspiro[3.5]nonan-7-yl)-N-((4-((((1r,4r)-4-hydroxy-4-methylcyclohexyl)methyl)amino)-3-nitrophenyl)sulfonyl)benzamide] the figure was 2.7 nM; with `COc1ccc(CN2CCN(C3CC4(CCN(c5ccc(C(=O)NS(=O)(=O)c6ccc(NC[C@H]7CC[C@](C)(O)CC7)c([N+](=O)[O-])c6)c(Oc6cnc7[nH]ccc7c6)c5)CC4)C3)C(c3ccccc3C(C)C)C2)cn1` (stereo partly shown) [Example 72, 2-((1H-pyrrolo[2,3-b]pyridin-5-yl)oxy)-N-((4-((((1r,4r)-4-hydroxy-4-methylcyclohexyl)methyl)amino)-3-nitrophenyl)sulfonyl)-4-(2-(2-(2-isopropylphenyl)-4-((6-methoxypyridin-3-yl)methyl)piperazin-1-yl)-7-azaspiro[3.5]nonan-7-yl)benzamide], 1.7 nM.
In the case of `CC(C)c1ccccc1[C@@H]1CN(Cc2cccc3c2OCCO3)CCN1C1CC2(CCN(c3ccc(C(=O)NS(=O)(=O)c4ccc(NC[C@H]5CC[C@](C)(O)CC5)c([N+](=O)[O-])c4)c(Oc4cnc5[nH]ccc5c4)c3)CC2)C1` [Example 79a, 2-((1H-pyrrolo[2,3-b]pyridin-5-yl)oxy)-4-(2-(R-4-((2,3-dihydrobenzo [b][1,4]dioxin-5-yl)methyl)-2-(2-isopropylphenyl)piperazin-1-yl)-7-azaspiro[3.5]nonan-7-yl)-N-((4-((((1r,4r)-4-hydroxy-4-methylcyclohexyl)methyl)amino)-3-nitrophenyl)sulfonyl)benzamide], the IC50 is 0.48 nM.
With `COc1ccc(CN2CCN(C3CC4(CCN(c5ccc(C(=O)NS(=O)(=O)c6ccc(NC[C@H]7CC[C@](C)(O)CC7)c([N+](=O)[O-])c6)c(Oc6cnc7[nH]ccc7c6)c5)CC4)C3)[C@H](c3ccccc3C(C)C)C2)cc1OC` [Example 81a, 2-((1H-pyrrolo[2,3-b]pyridin-5-yl)oxy)-4-(2-((R)-4-(3,4-dimethoxybenzyl)-2-(2-isopropylphenyl)piperazin-1-yl)-7-azaspiro[3.5]nonan-7-yl)-N-((4-((((1r,4r)-4-hydroxy-4-methylcyclohexyl)methyl)amino)-3-nitrophenyl)sulfonyl)benzamide] the figure was 0.48 nM; with `COc1ccc(CN2CCN(C3CC4(CCN(c5ccc(C(=O)NS(=O)(=O)c6ccc(NC[C@H]7CC[C@](C)(O)CC7)c([N+](=O)[O-])c6)c(Oc6cnc7[nH]cc(F)c7c6)c5)CC4)C3)[C@H](c3ccccc3C(C)C)C2)cc1OC` [Example 127, 4-(2-((R)-4-(3,4-dimethoxybenzyl)-2-(2-isopropylphenyl)piperazin-1-yl)-7-azaspiro[3.5]nonan-7-yl)-2-((3-fluoro-1H-pyrrolo[2,3-b]pyridin-5-yl)oxy)-N-((4-((((1r,4r)-4-hydroxy-4-methylcyclohexyl)methyl)amino)-3-nitrophenyl)sulfonyl)benzamide], 0.367 nM.
With `COc1ccc(CN2CCN(C3CC4(C3)CN(c3ccc(C(=O)NS(=O)(=O)c5ccc(NC[C@H]6CC[C@](C)(O)CC6)c([N+](=O)[O-])c5)c(Oc5cnc6[nH]cc(F)c6c5)c3)C4)[C@H](c3ccccc3C(C)C)C2)cc1OC` [Example 141a, 4-(6-((R)-4-(3,4-dimethoxybenzyl)-2-(2-isopropylphenyl)piperazin-1-yl)-2-azaspiro[3.3]heptan-2-yl)-2-((3-fluoro-1H-pyrrolo[2,3-b]pyridin-5-yl)oxy)-N-((4-((((1r,4r)-4-hydroxy-4-methylcyclohexyl)methyl)amino)-3-nitrophenyl)sulfonyl)benzamide] the figure was 0.268 nM; with `COc1ccc(CN2CCN(C3CC4(C3)CN(c3ccc(C(=O)NS(=O)(=O)c5ccc(NC[C@H]6CC[C@](C)(O)CC6)c([N+](=O)[O-])c5)c(Oc5cnc6[nH]ccc6c5)c3)C4)[C@H](c3ccccc3C(C)C)C2)cc1OC` [Example 145, 2-((1H-pyrrolo[2,3-b]pyridin-5-yl)oxy)-4-(6-((R)-4-(3,4-dimethoxybenzyl)-2-(2-isopropylphenyl)piperazin-1-yl)-2-azaspiro[3.3]heptan-2-yl)-N-((4-((((1r,4r)-4-hydroxy-4-methylcyclohexyl)methyl)amino)-3-nitrophenyl)sulfonyl)benzamide], 0.23 nM; with `COc1ccc(CN2CCN(C3CC4(C3)CN(c3ccc(C(=O)NS(=O)(=O)c5ccc(NC[C@H]6CC[C@](C)(O)CC6)c([N+](=O)[O-])c5)c(Oc5cnc6[nH]ccc6c5)c3)C4)[C@H](c3ccccc3C(C)C)C2)cc1` [Example 147, 2-((1H-pyrrolo[2,3-b]pyridin-5-yl)oxy)-N-((4-((((1r,4r)-4-hydroxy-4-methylcyclohexyl)methyl)amino)-3-nitrophenyl)sulfonyl)-4-(6-((R)-2-(2-isopropylphenyl)-4-(4-methoxybenzyl)piperazin-1-yl)-2-azaspiro[3.3]heptan-2-yl) benzamide], 0.588 nM.
With `[2H]C([2H])([2H])Oc1ccc(CN2CCN(C3CC4(CCN(c5ccc(C(=O)NS(=O)(=O)c6ccc(NC[C@H]7CC[C@](C)(O)CC7)c([N+](=O)[O-])c6)c(Oc6cnc7[nH]cc(F)c7c6)c5)CC4)C3)[C@H](c3ccccc3C(C)C)C2)cc1OC([2H])([2H])[2H]` [Example 198, 4-(2-((R)-4-(3,4-bis(methoxy-d3)benzyl)-2-(2-isopropylphenyl)piperazin-1-yl)-7-azaspiro[3.5]nonan-7-yl)-2-((3-fluoro-1H-pyrrolo[2,3-b]pyridin-5-yl)oxy)-N-((4-((((1r,4r)-4-hydroxy-4-methylcyclohexyl)methyl)amino)-3-nitrophenyl)sulfonyl)benzamide], the IC50 was 0.27 nM.
